Reference: patent EP0667959B1, “Methods for identifying inhibitors of the production of beta-amyloid peptide” (ELAN PHARMACEUTICALS, INC., priority 1992, dated 1994)

Experiments:
[1] = test system: 266 capture antibody and 10D5 reporter antibody; test: βAP cross-reactivity in 266/10D5 sandwich ELISA; type: binding; settings: molecule at 1-1000 ng/ml
Description: Monoclonal antibody 266 was diluted to a concentration of 5 µg/ml, and monoclonal antibody 067 to 10 µg/ml in a buffer containing NaH2PO4·7H2O, 26.2 g/L; NaN3, 1 g/L; pH 8.3. One hundred µl/well of this solution was then dispensed in a 96 well polystyrene transparent COSTAR plate and incubated overnight at room temperature. Following coating, the remaining solution was aspirated and the non-specific antibody binding sites were blocked with 0.25% human serum albumin (HSA) dissolved in a buffer containing NaH2PO4·H2O, 1 g/L; Na2HPO4·7H2O, 10.8 g/L; NaN3, 0.5 g/L and sucrose, 25 g/L; pH 7.4. These coated/blocked plates were used immediately or dried in a desiccator and stored in a dry container at 4°C for a maximum of 5 days.
Calibrators containing known amounts of βAP and samples from various bodily or extra bodily fluids were then added to the plate at 100 µl/well. The samples were added undiluted or diluted in a buffer containing NaH2PO4·H2O, 0.2 g/L; Na2HPO4·7H2O, 2.16 g/L; NaN3, 0.5 g/L; BSA (globulin free) 6 g/L; Triton X-405, 0.5 mL/L; NaCl, 8.5 g/L; pH 7.4. Samples and calibrators were incubated in the wells for 1 hour at room temperature, subsequently aspirated, and the wells washed with 300 µl/well of a solution containing NaCl, 80 g/L; KCl, 3.8 g/L; Tris base, 5.85 g/L; Tris HCl, 31.75 g/L; and 0.05% Tween® 20; pH 7.5 (TBS).
NHS-biotin (15 mg) was dissolved in 0.25 ml dimethylsulfoxide, and 10 µl of this solution was added to 1 mg of 10D5 or 6C6 antibody suspended in 1 ml of sodium carbonate solution, 50 mM, pH 8.5. The mixture was incubated in the dark for 1½ hours at room temperature and then dialyzed against phosphate buffered saline, pH 7.4 for 48 hours at 4°C, to produce biotinylated reporter antibody. One hundred µl/well of the biotinylated reporter antibody (10D5 or 6C6) diluted to 3 µg/ml was then added to each well and incubated for another hour at room temperature. The antibody diluent consisted of Trizma base, 1.21 g/L; NaCl, 29.22 g/L; NaN3, 1.5 g/L, Triton X 405, 0.5 ml/L; PEG (Mw 3350), 40 g/L; Mg Cl2·6H2O, 0.095 g/L; ZnCl2, 0.014 g/L; fetal bovine serum 100 ml/L; and BSA 2.5 g/L, pH 7.4.
After 1 hour incubation at room temperature with the reporter antibody (10D5 or 6C6) the supernatant was aspirated and the wells were washed three times with 300 µl/well of TBS. Streptavidin alkaline phosphatase (100 µl/well, diluted 1:2000 in the conjugate diluent buffer) was added and incubated for another hour at room temperature. […] Fluorescent substrate (4-methyl-umbellipheryl phosphate in 2-amino-2-methyl […] buffer; pH 9.5; (100 µl/well) was added) and fluorescence read and expressed as relative fluorescent units ([…]) after 15 minutes using a Cytofluor 2300 from Millipore, with 360/40 excitation filter and 460/40 emission filter. […]

[2] = biological target: Monoclonal antibodies to the junction region of βAP; test: Saturation analysis (RIA): displacement of 125I-labeled βAP1-28 from junction-region hybridoma clones by unlabeled peptide; type: binding, mice
Description: The RIA method used to screen serum bleeds and fusion hybridoma supernatants was based upon a method developed by Wang et al. (1977) J. Immunol. Methods 18:157-164. Briefly, the supernatant (or serum) was incubated overnight at room temperature on a rotator with ^125I-labeled βAP1-28 and Sepharose® 4B beads to which sheep anti-mouse IgG had been coupled via cyanogen bromide. The beads from each well were harvested onto glass fiber filter discs with a cell harvester and washed several times with PBS. The filter discs were then transferred to gamma tubes and the bound radioactivity was counted in a gamma counter.
Based on results of the above assays, several clones were expanded into 24 well plates. These clones were further characterized by saturation analysis. Supernatants at the 50% titer point (as determined by the RIA method described above) were added to wells containing Sepharose®-sheep anti-mouse IgG beads, a constant amount of ^125I-labeled βAP1-28, and varying amounts of unlabeled βAP13-28 or βAP17-28. The concentration of cold peptide for 50% inhibition was determined for each antibody. […] The 50% inhibition point for βAP13-28 ranged from 10-80 ng/well. The clones were also characterized based on reactivity in Western blots. Based on titer point, sensitivity (as determined by the 50% inhibition point), and reactivity on Western blot, several clones were produced in ascites.

Row | Substance | %Cross-Reactivity [1] [%] | other results
1 | βAP Fragment 15-20 (QKLVFF; Amyloid-beta protein 42; UniProt P05067 686-691, looked up, fragment) | 0 | 
2 | βAP Fragment 13-18 (HHQKLV; Amyloid-beta protein 42; UniProt P05067 684-689, looked up, fragment) | 0 | 
3 | βAP13-28 (HHQKLVFFAEDVGSNK; Amyloid-beta protein 42; UniProt P05067 684-699, looked up, fragment) |  | concentration of cold peptide for 50% inhibition ([2]; range over the clones, supernatants at the 50% titer point, 125I-labeled βAP1-28): 10-80 ng/well
4 | βAP Fragment 13-20 (HHQKLVFF; Amyloid-beta protein 42; UniProt P05067 684-691, looked up, fragment) | 0.2 | 
5 | βAP17-28 (LVFFAEDVGSNK; Amyloid-beta protein 42; UniProt P05067 688-699, looked up, fragment) |  | inhibition of 125I-labeled βAP1-28 binding ([2]; at 100 ng/well, any clones): no inhibition
6 | βAP Fragment 11-18 (EVHHQKLV; Amyloid-beta protein 42; UniProt P05067 682-689, looked up, fragment) | 0 | 
